According to patent US20180020676A1 (priority 2014, published 2018):

Tests used:
[1] = system: bean rust (Uromyces appendiculatus); assay: Greenhouse control of bean rust versus […] OPTIMUM and chemical agents; assay type: in vivo; conditions: bean plants, 200 k conidia/ml, ten days after infection; biologicals 1×10^8 cfu/ml, Tebuconazole 50 g a.i./ha, Chlorothalonil 500 g a.i./ha; 0.1875% TACTIC in all
[2] = system: bean rust (Uromyces appendiculatus); assay: Greenhouse control of bean rust at varying rates of inoculation; assay type: in vivo; conditions: 200K conidia/ml, ten days after infection, biologicals 1×10^8 cfu/ml, Tebuconazole 50 g a.i./ha
Method: The formulations and treatment methods used were the same as described for the previous experiment. One day after treatment application, the test plants were infected with bean rust (Uromyces appendiculatus) at an inoculation rate ranging from 50 k to 300 k conidia/ml. Ten days after infection with bean rust (Uromyces appendiculatus) the percent of disease control was evaluated for each of: […]

Compound: N#Cc1c(Cl)c(Cl)c(Cl)c(C#N)c1Cl [Chlorothalonil]
- Percent Disease Control [1]: 100%

Compound: CC(C)(C)C(O)(CCc1ccc(Cl)cc1)Cn1cncn1 (stereo not drawn) [Tebuconazole]
- Percent Disease Control [2]: 100 a %
- Percent Disease Control [1]: 100%
